According to ChEMBL document CHEMBL3580659, “One-pot multicomponent synthesis of indole incorporated thiazolylcoumarins and their antibacterial, anticancer and DNA cleavage studies” (2015):

Tests used:
Assay type in all cases: functional
UACC-257 = assay: Cytotoxicity against human UACC257 cells assessed as cell growth level at 100 uM after 48 hrs by sulforhodamine B assay
SK-OV-3 = assay: Cytotoxicity against human SKOV3 cells assessed as cell growth level at 100 uM after 48 hrs by sulforhodamine B assay
786-0 = assay: Cytotoxicity against human 786-0 cells assessed as cell growth level at 100 uM after 48 hrs by sulforhodamine B assay
SN12C = assay: Cytotoxicity against human SN12C cells assessed as cell growth level at 100 uM after 48 hrs by sulforhodamine B assay
NCI-H460 [1] = assay: Cytotoxicity against human NCI-H460 cells assessed as cell growth level at 10 nM after 48 hrs by sulforhodamine B assay
SK-MEL-2 = assay: Cytotoxicity against human SK-MEL-2 cells assessed as cell growth level at 10 nM after 48 hrs by sulforhodamine B assay
RXF 393 [2] = assay: Cytotoxicity against human RXF393 cells assessed as cell growth level at 10 nM after 48 hrs by sulforhodamine B assay
NCI-H460 [3] = assay: Cytotoxicity against human NCI-H460 cells assessed as cell growth level at 100 nM after 48 hrs by sulforhodamine B assay
U-251 = assay: Cytotoxicity against human U251 cells assessed as cell growth level at 100 nM after 48 hrs by sulforhodamine B assay
LOX IMVI = assay: Cytotoxicity against human LOXIMVI cells assessed as cell growth level at 100 nM after 48 hrs by sulforhodamine B assay
MDA-MB-435 = assay: Cytotoxicity against human MDA-MB-435 cells assessed as cell growth level at 100 nM after 48 hrs by sulforhodamine B assay
RXF 393 [4] = assay: Cytotoxicity against human RXF393 cells assessed as cell growth level at 100 nM after 48 hrs by sulforhodamine B assay
SR [5] = assay: Cytotoxicity against human SR cells assessed as cell growth level at 10 uM after 48 hrs by sulforhodamine B assay
CCRF-CEM = assay: Cytotoxicity against human CCRF-CEM cells assessed as cell growth level at 1 uM after 48 hrs by sulforhodamine B assay
NCI-H460 [6] = assay: Cytotoxicity against human NCI-H460 cells assessed as cell growth level at 1 uM after 48 hrs by sulforhodamine B assay
KM12 [7] = assay: Cytotoxicity against human KM12 cells assessed as cell growth level at 10 uM after 48 hrs by sulforhodamine B assay
SF-295 = assay: Cytotoxicity against human SF295 cells assessed as cell growth level at 10 uM after 48 hrs by sulforhodamine B assay
SF-539 = assay: Cytotoxicity against human SF539 cells assessed as cell growth level at 10 uM after 48 hrs by sulforhodamine B assay
UACC-62 [8] = assay: Cytotoxicity against human UACC62 cells assessed as cell growth level at 10 uM after 48 hrs by sulforhodamine B assay
OVCAR-4 [9] = assay: Cytotoxicity against human OVCAR4 cells assessed as cell growth level at 10 uM after 48 hrs by sulforhodamine B assay
CAKI-1 [10] = assay: Cytotoxicity against human CAKI-1 cells assessed as cell growth level at 10 uM after 48 hrs by sulforhodamine B assay
RXF 393 [11] = assay: Cytotoxicity against human RXF393 cells assessed as cell growth level at 10 uM after 48 hrs by sulforhodamine B assay
SF-268 = assay: Cytotoxicity against human SF268 cells assessed as cell growth level at 1 uM after 48 hrs by sulforhodamine B assay
M14 [12] = assay: Cytotoxicity against human M14 cells assessed as cell growth level at 1 uM after 48 hrs by sulforhodamine B assay
SK-MEL-28 = assay: Cytotoxicity against human SK-MEL-28 cells assessed as cell growth level at 1 uM after 48 hrs by sulforhodamine B assay
ACHN = assay: Cytotoxicity against human ACHN cells assessed as cell growth level at 1 uM after 48 hrs by sulforhodamine B assay
PC-3 = assay: Cytotoxicity against human PC3 cells assessed as cell growth level at 1 uM after 48 hrs by sulforhodamine B assay
SR [13] = assay: Cytotoxicity against human SR cells assessed as cell growth level at 100 uM after 48 hrs by sulforhodamine B assay
NCI-H23 = assay: Cytotoxicity against human NCI-H23 cells after 48 hrs by sulforhodamine B assay; conditions: NCI-H23, 48 h
KM12 [14] = assay: Cytotoxicity against human KM12 cells after 48 hrs by sulforhodamine B assay; conditions: KM12, 48 h
HCT-116 = assay: Cytotoxicity against human HCT116 cells assessed as cell growth level at 100 uM after 48 hrs by sulforhodamine B assay
M14 [15] = assay: Cytotoxicity against human M14 cells after 48 hrs by sulforhodamine B assay; conditions: M14, 48 h
UACC-62 [16] = assay: Cytotoxicity against human UACC62 cells after 48 hrs by sulforhodamine B assay; conditions: UACC-62, 48 h
OVCAR-4 [17] = assay: Cytotoxicity against human OVCAR4 cells after 48 hrs by sulforhodamine B assay; conditions: OVCAR-4, 48 h
[18] = Cytotoxicity against human NCI-ADR-RES cells after 48 hrs by sulforhodamine B assay
CAKI-1 [19] = assay: Cytotoxicity against human CAKI-1 cells after 48 hrs by sulforhodamine B assay; conditions: CAKI-1, 48 h
K562 = assay: Cytotoxicity against human K562 cells assessed as cell growth level at 10 nM after 48 hrs by sulforhodamine B assay
SR [20] = assay: Cytotoxicity against human SR cells assessed as cell growth level at 10 nM after 48 hrs by sulforhodamine B assay
[21] = read-out: LC50 (the source's name)
[22] = read-out: pLC50 (the source's name) (converted)

Work on O=c1oc2ccccc2cc1-c1csc(N/N=C/c2c[nH]c3ccccc23)n1 yielded an Activity (UACC-257) of -89%, an Activity (SK-OV-3) of -48% and an Activity (786-0) of -27%. For the same compound, the Activity (SN12C) was -51%, the Activity (NCI-H460 [1]) was 79% and the Activity (SK-MEL-2) was 98%. The Activity (RXF 393 [2]) was 98%, the Activity (NCI-H460 [3]) was 93% and the Activity (U-251) was 108%. The Activity (LOX IMVI) was 92%, the Activity (MDA-MB-435) was 99% and the Activity (RXF 393 [4]) was 93%. It also gave an Activity (SR [5]) of -0.54%, an Activity (CCRF-CEM) of 7% and an Activity (NCI-H460 [6]) of 52%. For the same compound, the Activity (KM12 [7]) was -47.67%, the Activity (SF-295) was -25.04% and the Activity (SF-539) was 0.41%. For the same compound, the Activity (UACC-62 [8]) was 42.96%, the Activity (OVCAR-4 [9]) was -4.09% and the Activity (CAKI-1 [10]) was -41.32%. The Activity (RXF 393 [11]) was 25.19%, the Activity (SF-268) was 86% and the Activity (M14 [12]) was 89%. The Activity (SK-MEL-28) was 93%, the Activity (ACHN) was 72% and the Activity (PC-3) was 84%. The Activity (SR [13]) was -46%, the GI50 (NCI-H23; read-out: GI50) was 2.44 µM and the LC50 (NCI-H23; read-out: LC50) was over 100 µM. The TGI (NCI-H23; read-out: TGI) was 5.82 µM, the GI50 (NCI-H23; read-out: pGI50 (converted)) was 2.45 µM and the LC50 (NCI-H23; read-out: pLC50 (converted)) was over 100 µM. The TGI (NCI-H23; read-out: pTGI (converted)) was 5.75 µM, the GI50 (KM12 [14]; read-out: GI50) was 1.86 µM and the CC50 (KM12 [14]; [21]) was 9.22 µM. The TGI (KM12 [14]; read-out: TGI) was 4.14 µM, the GI50 (KM12 [14]; read-out: pGI50 (converted)) was 1.86 µM and the CC50 (KM12 [14]; [22]) was 9.12 µM. It also gave a TGI (KM12 [14]; read-out: pTGI (converted)) of 4.17 µM, an Activity (HCT-116) of -66% and a GI50 (M14 [15]; read-out: GI50) of 1.95 µM. It also gave a CC50 (M14 [15]; [21]) of 9.13 µM, a TGI (M14 [15]; read-out: TGI) of 4.22 µM and a GI50 (M14 [15]; read-out: pGI50 (converted)) of 1.95 µM. It also gave a CC50 (M14 [15]; [22]) of 9.12 µM, a TGI (M14 [15]; read-out: pTGI (converted)) of 4.17 µM and a GI50 (UACC-62 [16]; read-out: GI50) of 1.6 µM. It also gave a CC50 (UACC-62 [16]; [21]) of 7.11 µM, a TGI (UACC-62 [16]; read-out: TGI) of 3.38 µM and a GI50 (UACC-62 [16]; read-out: pGI50 (converted)) of 1.58 µM. The CC50 (UACC-62 [16]; [22]) was 7.08 µM, the TGI (UACC-62 [16]; read-out: pTGI (converted)) was 3.39 µM and the GI50 (OVCAR-4 [17]; read-out: GI50) was 1.37 µM. It also gave a CC50 (OVCAR-4 [17]; [21]) of over 100 µM, a TGI (OVCAR-4 [17]; read-out: TGI) of 5.87 µM and a GI50 (OVCAR-4 [17]; read-out: pGI50 (converted)) of 1.38 µM. The CC50 (OVCAR-4 [17]; [22]) was over 100 µM, the TGI (OVCAR-4 [17]; read-out: pTGI (converted)) was 5.89 µM and the GI50 ([18]; read-out: GI50) was 2.82 µM. For the same compound, the CC50 [18, 21] was over 100 µM, the TGI ([18]; read-out: TGI) was 9.23 µM and the GI50 ([18]; read-out: pGI50 (converted)) was 2.82 µM. The CC50 [18, 22] was over 100 µM, the TGI ([18]; read-out: pTGI) was under 9.33 µM and the GI50 (CAKI-1 [19]; read-out: GI50) was 1.61 µM. It also gave a CC50 (CAKI-1 [19]; [21]) of over 100 µM, a TGI (CAKI-1 [19]; read-out: TGI) of 4.65 µM and a GI50 (CAKI-1 [19]; read-out: pGI50 (converted)) of 1.62 µM. For the same compound, the CC50 (CAKI-1 [19]; [22]) was over 100 µM, the TGI (CAKI-1 [19]; read-out: pTGI (converted)) was 4.68 µM and the Activity (K562) was 95%. For the same compound, the Activity (SR [20]) was 94%.
